Results: BindingDB's records for doi:10.1021/jm020046y (National Institute of Diabetes, 2002)

What was measured:
[1] = biological target: P2X purinoceptor 3 (Rattus norvegicus) (UniProt P49654); assay: The compound was evaluated for antagonist activity against recombinant rat P2X purinoceptor 3 (P2X3) at 3 uM, expressed in Xenopus oocytes
[2] = biological target: P2X purinoceptor 3 (Rattus norvegicus) (UniProt P49654); assay: The compound was evaluated for antagonist activity against recombinant rat P2X purinoceptor 3 (P2X3) at 10 uM,expressed in Xenopus oocytes
[3] = biological target: P2Y purinoceptor 1 (Meleagris gallopavo, UniProt P49652); assay: Evaluated for agonist activity against phospholipase C coupled P2Y purinoceptor 1 (P2Y1) of turkey erythrocytes
Chain of P2Y purinoceptor 1 (P49652 whole entry): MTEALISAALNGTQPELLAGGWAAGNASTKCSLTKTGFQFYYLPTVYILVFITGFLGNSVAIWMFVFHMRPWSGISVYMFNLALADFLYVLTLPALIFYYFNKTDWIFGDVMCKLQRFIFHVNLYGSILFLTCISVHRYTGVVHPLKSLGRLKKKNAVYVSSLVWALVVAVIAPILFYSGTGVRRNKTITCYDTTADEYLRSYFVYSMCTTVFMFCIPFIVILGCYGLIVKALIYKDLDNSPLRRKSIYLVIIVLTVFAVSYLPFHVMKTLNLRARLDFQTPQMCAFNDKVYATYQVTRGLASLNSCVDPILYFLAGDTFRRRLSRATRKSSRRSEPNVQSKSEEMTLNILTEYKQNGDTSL

[4] = biological target: T1, P2X purinoceptor 7 (Rattus norvegicus, UniProt Q64663); assay: The compound was evaluated for antagonist activity against recombinant rat P2X purinoceptor 7 (P2X7)
T1 sequence (Q64663 whole entry): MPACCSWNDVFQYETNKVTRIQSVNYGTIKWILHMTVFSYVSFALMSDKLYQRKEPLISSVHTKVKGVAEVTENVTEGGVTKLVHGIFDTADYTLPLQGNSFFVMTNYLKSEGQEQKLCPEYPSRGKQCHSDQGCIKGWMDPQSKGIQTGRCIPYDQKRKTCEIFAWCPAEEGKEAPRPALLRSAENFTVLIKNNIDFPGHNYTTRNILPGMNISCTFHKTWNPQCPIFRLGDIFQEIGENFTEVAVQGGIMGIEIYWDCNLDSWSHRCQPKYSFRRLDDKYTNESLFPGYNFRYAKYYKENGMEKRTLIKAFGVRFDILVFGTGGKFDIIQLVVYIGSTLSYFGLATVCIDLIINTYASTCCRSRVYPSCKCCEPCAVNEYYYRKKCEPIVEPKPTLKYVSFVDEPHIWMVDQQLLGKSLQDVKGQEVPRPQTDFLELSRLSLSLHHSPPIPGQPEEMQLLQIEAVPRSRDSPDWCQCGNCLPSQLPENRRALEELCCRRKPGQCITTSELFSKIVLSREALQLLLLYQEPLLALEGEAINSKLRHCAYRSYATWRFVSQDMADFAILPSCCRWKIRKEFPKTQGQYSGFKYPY

[5] = Dissociative constant against P2Y purinoceptor (P2Y) was reported; range 10-214
[6] = biological target: P2X purinoceptor 2 (Rattus norvegicus); assay: The compound was evaluated for antagonist activity against recombinant rat P2X purinoceptor 2 (P2X2) at 30 uM
[7] = The compound was evaluated for antagonist activity against recombinant rat P2X […] receptor 10 uM
[8] = Dissociation constant at P2X purinoceptor 1 from guinea pig taenia coli

Chain of P2X purinoceptor 3 (Rattus norvegicus) (P49654 whole entry, looked up): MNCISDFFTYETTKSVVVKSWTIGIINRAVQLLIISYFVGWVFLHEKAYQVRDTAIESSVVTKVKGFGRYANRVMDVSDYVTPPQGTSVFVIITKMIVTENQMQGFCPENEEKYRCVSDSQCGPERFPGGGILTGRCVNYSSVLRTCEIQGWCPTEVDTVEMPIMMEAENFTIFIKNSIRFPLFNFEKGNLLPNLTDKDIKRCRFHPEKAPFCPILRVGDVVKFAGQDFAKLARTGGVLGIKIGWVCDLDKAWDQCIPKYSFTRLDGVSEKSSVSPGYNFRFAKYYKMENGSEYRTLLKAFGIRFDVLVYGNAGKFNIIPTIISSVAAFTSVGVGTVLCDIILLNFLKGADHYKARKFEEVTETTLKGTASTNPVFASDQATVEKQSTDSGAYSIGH

Molecule `Nc1ncnc2c1ncn2[C@@H]1O[C@H](CO[P@@](=O)(O)O[P@@](=O)(O)CP(=O)(O)O)[C@@H](O)[C@H]1O` has an EC50 [1] of 9200 nM.
In the case of `CCCCCCSc1nc(N)c2ncn([C@@H]3O[C@H](COP(=O)(O)O)[C@@H](O)[C@H]3O)c2n1` [((2R,3S,4R,5R)-5-(6-amino-2-(hexylthio)-9H-purin-9-yl)-3,4-dihydroxytetrahydrofuran-2-yl)methyl dihydrogen phosphate], the EC50 [2] is reported as 350 nM.
Molecule `CCOc1ccc(Nc2ccc([C+](c3ccc(N(CC)Cc4cccc(S(=O)(=O)[O-])c4)cc3C)c3ccc(N(CC)Cc4cccc(S(=O)(=O)O)c4)cc3C)cc2)cc1` [Brilliant Blue] has an EC50 [3] of 0.1 nM and an EC50 [4] of 400 nM.
With `O=S(=O)(O)c1cc(N=C=S)ccc1/C=C/c1ccc(N=C=S)cc1S(=O)(=O)O` [DIDS] the Kd [5] was 10000 nM.
`O=c1[nH]cnc2c1ncn2[C@@H]1O[C@H](COP(=O)(O)OP(=O)(O)OP(=O)(O)OP(=O)(O)OP(=O)(O)OC[C@H]2O[C@@H](n3cnc4c(=O)[nH]cnc43)[C@H](O)[C@@H]2O)[C@@H](O)[C@H]1O` [Ip5I] showed an IC50 [6] of over 30000 nM and an IC50 [7] of 2800 nM.
Work on `Nc1ccc(CCSc2nc(N)c3ncn([C@@H]4O[C@H](COP(=O)(O)OP(=O)(O)OP(=O)(O)O)[C@@H](O)[C@H]4O)c3n2)cc1` [PAPET-ATP] yielded an EC50 [2] of 17 nM.
`C=CS(=O)(=O)c1cccc(Nc2cc(S(=O)(=O)O)c(N)c3c2C(=O)c2ccccc2C3=O)c1` [Uniblue A] showed a Kd [8] of 800 nM.
